This note sets out measurements from US10150743B2, “Carboxylic acid compounds” (priority 2012, dated 2018).

Some results are limits rather than exact numbers.

Assay type in all cases: cell-based
One test addresses hERG potassium channel (Homo sapiens (Human), UniProt Q12809). Briefly: hERG Analysis - Method 2 (QPATCH HT, CHO-hERG cells). The following applies: half-maximal inhibition concentration, 22±2° C. Here is the method: The hERG potassium current was measured in a hERG-stably-expressing Chinese hamster ovary K1 (CHO) cells. The experiments were performed using an automated planar patch-clamp system QPATCH HT (Sophion Bioscience A/S). The application of pressure for forming gigaseals and whole-cell patch clamp configuration were established using the QPATCH assay software. Patch-clamp experiments were performed in voltage-clamp mode and whole-cell currents were recorded from individual cells. The following stimulation protocol was applied to investigate the effects of compounds on hERG potassium channel: The membrane potential was held at −80 mV and repetitively (every 15 s) depolarized to +20 mV for 5 s after the pulse to −50 mV for 20 ms served to define the baseline, followed by repolarizing step to −50 mV for 5 s to evaluate of the tail current amplitude. Experiments were conducted at room temperature (22±2° C.).
Effects of compounds were determined from cumulative applications of increasing 4 concentrations and calculated as percent of blocked current. The data points were fitted with Hill equation to calculate half-maximal inhibition concentrations. The test solution includes: Extracellular solution (mM): 2 mM of CaCl2, 1 mM of MgCl2, 10 mM of HEPES, 4 mM of KCl, 145 mM of NaCl, and 10 mM of Glucose; and Intracellular solution (mM): 5.4 mM of CaCl2, 1.8 mM of MgCl2, 10 mM of HEPES, 31 mM of KOH, 10 mM of EGTA, 120 mM of KCl, and 4 mM of ATP.
Background: The hERG channel carries a current that helps repolarise heart muscle cells.

A further test has as its target human TLR8 (Homo sapiens (Human), UniProt Q9NR97). Briefly: Human TLR8 assay (TLR8/NF-kB/SEAPorter HEK 293 Cell Line). The following applies: SEAP induction, overnight incubation at 37° C., 0.1% DMSO; read-out: TLR8 pEC50 (converted). The source says:
TLR8/NF-kB/SEAPorter™ HEK 293 Cell Line (Imgenex Corporation) is a stably co-transfected cell line which expresses full-length human TLR8 and the secreted alkaline phosphatase (SEAP) reporter gene under the transcriptional control of an NF-κB response element. TLR8 expression in this cell line has been tested by flow cytometry. Transfectants with stable expression were selected using the antibiotic blasticidin and geneticin. TLR signaling leads to the translocation of NF-κB and activation of the promoter results in expression of the SEAP gene. TLR8-specific activation was assessed by determining the level of SEAP produced following overnight incubation of the cells at 37° C. with the standard compound in the presence of 0.1% (v/v) dimethylsulfoxide (DMSO). Concentration dependent induction of SEAP production by compounds was expressed as the concentration of compound which produced half of the maximal level of SEAP induction for that compound (EC50).

The next test deals with human TLR7 (Homo sapiens (Human), UniProt Q9NYK1). In words: Human TLR7 assay (SEAP reporter in HEK293). The following applies: SEAP induction, overnight incubation at 37° C., 0.1% DMSO; read-out: TLR7 (pEC50) (converted). The source says:
Recombinant human TLR7 was stably expressed in a HEK293 cell line already stably expressing the pNiFty2-SEAP reporter plasmid; integration of the reporter gene was maintained by selection with the antibiotic zeocin. The most common variant sequence of human TLR7 (represented by the EMBL sequence AF240467) was cloned into the mammalian cell expression vector pUNO and transfected into this reporter cell-line. Transfectants with stable expression were selected using the antibiotic blasticidin. In this reporter cell-line, expression of secreted alkaline phosphatase (SEAP) is controlled by an NFkB/ELAM-1 composite promoter comprising five NFkB sites combined with the proximal ELAM-1 promoter. TLR signaling leads to the translocation of NFkB and activation of the promoter results in expression of the SEAP gene. TLR7-specific activation was assessed by determining the level of SEAP produced following overnight incubation of the cells at 37° C. with the standard compound in the presence of 0.1% (v/v) dimethylsulfoxide (DMSO). Concentration dependent induction of SEAP production by compounds was expressed as the concentration of compound which produced half of the maximal level of SEAP induction for that compound (EC50).

In another test the target is hERG ion channel (Homo sapiens (Human), UniProt Q12809). Briefly: hERG Analysis - Method 1 (IONWORKS HT, CHO-hERG cells). The following applies: ~21° C. Here is the method: The hERG-expressing Chinese hamster ovary K1 (CHO) cells described by (Persson, Carlsson, Duker, & Jacobson, 2005) were grown to semi-confluence at 37° C. in a humidified environment (5% CO2) in F-12 Ham medium containing L-glutamine, 10% foetal calf serum (FCS) and 0.6 mg/mL hygromycin (all available from Sigma-Aldrich). Prior to use, the monolayer was washed using a pre-warmed (37° C.) 3 mL aliquot of Versene 1:5,000 (Invitrogen) After aspiration of this solution the flask was incubated at 37° C. in an incubator with a further 2 mL of Versene 1:5,000 for a period of 6 minutes. Cells were then detached from the bottom of the flask by gentle tapping and 10 mL of Dulbecco's Phosphate-Buffered Saline containing calcium (0.9 mM) and magnesium (0.5 mM) (PBS; Invitrogen) was then added to the flask and aspirated into a 15 mL centrifuge tube prior to centrifugation (50 g, for 4 mins). The resulting supernatant was discarded and the pellet gently re-suspended in 3 mL of PBS. A 0.5 mL aliquot of cell suspension was removed and the number of viable cells (based on trypan blue exclusion) was determined in an automated reader (Cedex; Innovatis) so that the cell re-suspension volume can be adjusted with PBS to give the desired final cell concentration. It is the cell concentration at this point in the assay that is quoted when referring to this parameter. CHO-Kv1.5 cells, which were used to adjust the voltage offset on IONWORKS™ HT, were maintained and prepared for use in the same way.
hERG ion channel, sequence (Q12809 whole entry): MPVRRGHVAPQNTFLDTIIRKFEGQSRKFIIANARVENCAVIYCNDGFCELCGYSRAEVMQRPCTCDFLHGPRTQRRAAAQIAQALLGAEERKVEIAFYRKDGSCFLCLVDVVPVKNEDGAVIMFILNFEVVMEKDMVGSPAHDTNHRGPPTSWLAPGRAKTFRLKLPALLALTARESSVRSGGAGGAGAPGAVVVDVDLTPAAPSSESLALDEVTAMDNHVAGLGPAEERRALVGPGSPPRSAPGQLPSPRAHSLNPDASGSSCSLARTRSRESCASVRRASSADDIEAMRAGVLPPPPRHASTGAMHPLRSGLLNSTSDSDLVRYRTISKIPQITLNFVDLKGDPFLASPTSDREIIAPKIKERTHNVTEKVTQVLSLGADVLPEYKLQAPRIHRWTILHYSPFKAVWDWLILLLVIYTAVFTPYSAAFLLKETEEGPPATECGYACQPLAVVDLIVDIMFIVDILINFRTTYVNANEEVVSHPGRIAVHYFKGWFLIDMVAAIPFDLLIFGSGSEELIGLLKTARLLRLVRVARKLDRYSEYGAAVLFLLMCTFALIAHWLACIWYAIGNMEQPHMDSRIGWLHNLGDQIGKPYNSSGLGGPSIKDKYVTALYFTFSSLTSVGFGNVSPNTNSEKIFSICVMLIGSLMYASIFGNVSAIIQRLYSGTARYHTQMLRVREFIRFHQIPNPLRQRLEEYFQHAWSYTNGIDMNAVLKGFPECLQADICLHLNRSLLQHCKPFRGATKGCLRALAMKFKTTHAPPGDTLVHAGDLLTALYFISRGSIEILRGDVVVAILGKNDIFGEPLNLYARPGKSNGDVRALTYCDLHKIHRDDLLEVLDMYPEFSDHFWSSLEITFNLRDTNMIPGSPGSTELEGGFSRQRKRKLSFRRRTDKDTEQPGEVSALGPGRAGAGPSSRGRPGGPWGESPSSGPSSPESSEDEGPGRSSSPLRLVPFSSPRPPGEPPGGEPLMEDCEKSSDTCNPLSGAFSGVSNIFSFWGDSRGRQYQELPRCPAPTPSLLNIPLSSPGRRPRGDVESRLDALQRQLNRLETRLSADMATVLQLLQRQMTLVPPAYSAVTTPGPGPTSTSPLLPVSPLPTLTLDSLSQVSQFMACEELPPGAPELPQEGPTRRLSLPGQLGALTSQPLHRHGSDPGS
The principles and operation of this device have been described by (Schroeder, Neagle, Trezise, & Worley, 2003). Briefly, the technology is based on a 384-well plate (PATCHPLATE™) in which a recording was attempted in each well by using suction to position and hold a cell on a small hole separating two isolated fluid chambers. Once sealing had taken place, the solution on the underside of the PATCHPLATE™ was changed to one containing amphotericin B. This permeablises the patch of cell membrane covering the hole in each well and, in effect, allowed a perforated, whole-cell patch clamp recording to be made.
A β-test IONWORKS™ HT from Essen Instrument was used. […] (˜21° C.), as follows. The reservoir in the “Buffer” position was loaded with 4 mL of PBS and that in the “Cells” position with the CHO-hERG cell suspension described above. A 96-well plate (V-bottom, Greiner Bio-one) containing the compounds to be tested (at 3-fold above their final test concentration) was placed in the “Plate 1” position and a PATCHPLATE™ was clamped into the PATCHPLATE™ station. […]

human TLR7, sequence (Q9NYK1 27-1049): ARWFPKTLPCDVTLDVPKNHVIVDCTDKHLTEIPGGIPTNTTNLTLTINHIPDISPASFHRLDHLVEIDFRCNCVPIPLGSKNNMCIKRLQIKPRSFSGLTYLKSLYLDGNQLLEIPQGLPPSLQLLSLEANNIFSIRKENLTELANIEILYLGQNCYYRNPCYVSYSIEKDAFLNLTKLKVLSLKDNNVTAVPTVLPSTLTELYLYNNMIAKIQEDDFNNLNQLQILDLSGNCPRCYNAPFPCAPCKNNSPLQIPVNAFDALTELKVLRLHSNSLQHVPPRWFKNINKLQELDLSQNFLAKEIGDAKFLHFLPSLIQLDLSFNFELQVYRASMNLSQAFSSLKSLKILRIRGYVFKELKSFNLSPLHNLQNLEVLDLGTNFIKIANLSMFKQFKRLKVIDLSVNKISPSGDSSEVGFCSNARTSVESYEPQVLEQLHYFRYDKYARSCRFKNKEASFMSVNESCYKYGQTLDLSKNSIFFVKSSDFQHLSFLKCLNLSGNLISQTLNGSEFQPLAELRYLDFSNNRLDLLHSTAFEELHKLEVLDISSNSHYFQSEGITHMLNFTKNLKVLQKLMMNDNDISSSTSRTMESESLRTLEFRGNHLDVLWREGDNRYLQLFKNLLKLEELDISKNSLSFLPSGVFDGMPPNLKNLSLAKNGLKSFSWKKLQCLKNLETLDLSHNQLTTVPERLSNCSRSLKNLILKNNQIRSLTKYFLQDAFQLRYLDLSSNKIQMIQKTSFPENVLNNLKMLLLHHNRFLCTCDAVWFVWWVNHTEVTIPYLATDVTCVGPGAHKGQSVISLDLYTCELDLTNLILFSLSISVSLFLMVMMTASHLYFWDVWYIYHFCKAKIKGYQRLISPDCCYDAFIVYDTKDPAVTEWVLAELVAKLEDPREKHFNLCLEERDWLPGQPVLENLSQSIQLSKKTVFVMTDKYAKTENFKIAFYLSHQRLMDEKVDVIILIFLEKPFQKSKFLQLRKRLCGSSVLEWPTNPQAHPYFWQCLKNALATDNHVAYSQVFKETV
human TLR8, sequence (Q9NR97 27-1041): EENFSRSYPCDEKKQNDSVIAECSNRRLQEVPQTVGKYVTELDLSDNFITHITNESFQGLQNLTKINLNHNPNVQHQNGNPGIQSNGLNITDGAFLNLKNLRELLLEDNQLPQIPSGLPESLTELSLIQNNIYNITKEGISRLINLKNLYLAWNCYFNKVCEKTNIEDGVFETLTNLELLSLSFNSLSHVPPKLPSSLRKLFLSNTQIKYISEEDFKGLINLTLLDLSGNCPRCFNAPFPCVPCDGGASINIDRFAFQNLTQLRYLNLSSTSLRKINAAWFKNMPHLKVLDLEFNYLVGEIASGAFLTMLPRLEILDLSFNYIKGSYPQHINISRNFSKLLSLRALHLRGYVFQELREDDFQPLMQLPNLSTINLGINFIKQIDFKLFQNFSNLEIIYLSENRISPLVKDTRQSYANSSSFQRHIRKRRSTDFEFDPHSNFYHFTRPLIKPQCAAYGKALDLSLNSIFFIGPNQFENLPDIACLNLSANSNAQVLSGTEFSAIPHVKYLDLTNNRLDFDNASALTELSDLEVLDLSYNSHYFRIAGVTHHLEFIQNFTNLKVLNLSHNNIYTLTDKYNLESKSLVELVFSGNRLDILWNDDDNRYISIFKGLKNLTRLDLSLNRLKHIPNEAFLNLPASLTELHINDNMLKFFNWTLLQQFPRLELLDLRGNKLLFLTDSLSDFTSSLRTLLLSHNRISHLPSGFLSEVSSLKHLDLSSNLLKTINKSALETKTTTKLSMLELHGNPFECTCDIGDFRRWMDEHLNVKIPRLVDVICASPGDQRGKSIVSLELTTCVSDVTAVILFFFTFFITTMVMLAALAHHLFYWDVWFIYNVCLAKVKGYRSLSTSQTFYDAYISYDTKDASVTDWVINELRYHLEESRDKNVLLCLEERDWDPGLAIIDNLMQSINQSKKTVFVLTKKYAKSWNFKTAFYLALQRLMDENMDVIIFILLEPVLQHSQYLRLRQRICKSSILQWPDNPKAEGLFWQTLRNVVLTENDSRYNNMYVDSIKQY
hERG potassium channel, sequence (Q12809 whole entry): as the sequence (Q12809 whole entry) above

By IC50 is commonly meant the concentration that inhibits the measured activity by half. `CCC[C@@H](CCO)Nc1nc(N)nc(C)c1Cc1ccc(CN(CC(=O)O)C(C)=O)cc1OC` [Example 7, (S)-2-(N-(4-((2-amino-4-(1-hydroxyhexan-3-ylamino)-6-methylpyrimidin-5-yl)methyl)-3-methoxybenzyl)acetamido)acetic acid]: the IC50 against hERG potassium channel was above 10000 nM. For the same molecule, the EC50 at human TLR8 is above 10000 nM; on human TLR7, 251 nM.

As for `CCC[C@@H](CCO)Nc1nc(N)nc(C)c1Cc1ccc(CN(CC)CCC(=O)O)cc1OC` [Example 5, (S)-3-((4-((2-amino-4-(1-hydroxyhexan-3-ylamino)-6-methylpyrimidin-5-yl)methyl)-3-methoxybenzyl)(ethyl)amino)propanoic acid], the IC50 was above 10000 nM against hERG potassium channel and above 33000 nM against hERG ion channel. For the same molecule, the EC50 was above 10000 nM on human TLR8 and 50.1 nM at human TLR7.

On hERG potassium channel, `CCC[C@@H](CCO)Nc1nc(N)nc(C)c1Cc1ccc(OCCCN2CCC[C@@H]2C(=O)O)cc1OC` [Example 8, (R)-1-(3-(4-((2-amino-4-((S)-1-hydroxyhexan-3-ylamino)-6-methylpyrimidin-5-yl)methyl)-3-methoxyphenoxy)propyl)pyrrolidine-2-carboxylic acid] had an IC50 above 10000 nM. In addition, the EC50 on human TLR8 is above 10000 nM; on human TLR7, 126 nM.

As for `CCC[C@@H](CCO)Nc1nc(N)nc(C)c1Cc1ccc(OCCCN(CC(=O)O)CC(F)F)cc1OC` [Example 12, (S)-2-((3-(4-((2-amino-4-(l-hydroxyhexan-3-ylamino)-6-methylpyrimidin-5-yl)methyl)-3-methoxyphenoxy)propyl)(2,2-difluoroethyl)amino)acetic acid], the EC50 at human TLR8 was above 10000 nM; at human TLR7, 100 nM.

For the molecule `CCC[C@@H](CCO)Nc1nc(N)nc(C)c1Cc1ccc(Cn2cncc2C(=O)O)cc1OC` [Example 14, (S)-1-(4-((2-amino-4-(1-hydroxyhexan-3-ylamino)-6-methylpyrimidin-5-yl)methyl)-3-methoxybenzyl)-1H-imidazole-5-carboxylic acid], the results for the EC50 at human TLR8 and at human TLR7 were above 10000 nM and 2000 nM, respectively.

Consider `CCC[C@@H](CCO)Nc1nc(N)nc(C)c1Cc1ccc(OCCCN(CC)CC(=O)O)cc1OC` [Example 11, (S)-2-((3-(4-((2-amino-4-(1-hydroxyhexan-3-ylamino)-6-methylpyrimidin-5-yl)methyl)-3-methoxyphenoxy)propyl)(ethyl)amino)acetic acid], for which the EC50 on human TLR8 was above 10000 nM; on human TLR7, 200 nM.

As for `CCC[C@@H](CCO)Nc1nc(N)nc(C)c1Cc1ccc(OCCCN(CC)CCC(=O)O)cc1OC` [Example 10, (S)-3-((3-(4-((2-amino-4-(1-hydroxyhexan-3-ylamino)-6-methylpyrimidin-5-yl)methyl)-3-methoxyphenoxy)propyl)(ethyl)amino)propanoic acid], the EC50 at human TLR8 was above 10000 nM; on human TLR7, 251 nM.

As to `CCCCNc1nc(N)nc(C)c1Cc1ccc(CN(CC)CC(=O)O)cc1OC` [Example 2, 2-((4-((2-amino-4-(butylamino)-6-methylpyrimidin-5-yl)methyl)-3-methoxybenzyl) (ethyl)amino)acetic acid], at hERG potassium channel, the IC50 is above 10000 nM. The results for the EC50 at human TLR8 and at human TLR7 were above 10000 nM and 794 nM, respectively.

`CCC[C@@H](CCO)Nc1nc(N)nc(C)c1Cc1ccc(CN2CCC[C@@H]2C(=O)O)cc1OC` [Example 13, (R)-1-(4-((2-amino-4-((S)-1-hydroxyhexan-3-ylamino)-6-methylpyrimidin-5-yl)methyl)-3-methoxybenzyl)pyrrolidine-2-carboxylic acid]: the EC50 was above 10000 nM on human TLR8 and 200 nM on human TLR7.

Consider `CCC[C@@H](CCO)Nc1nc(N)nc(C)c1Cc1ccc(CN(CC)CC(=O)O)cc1OC` [Example 1, (S)-2-((4-((2-amino-4-(1-hydroxyhexan-3-ylamino)-6-methylpyrimidin-5-yl)methyl)-3-methoxybenzyl)(ethyl)amino)acetic acid], for which the IC50 is above 10000 nM at hERG potassium channel and above 33000 nM against hERG ion channel. The EC50 at human TLR8 is above 10000 nM; at human TLR7, 158 nM.

The molecule `CCC[C@@H](CCO)Nc1nc(N)nc(C)c1Cc1ccc(OCCCN2CCC[C@H]2C(=O)O)cc1OC` [Example 9, (S)-1-(3-(4-((2-amino-4-((S)-1-hydroxyhexan-3-ylamino)-6-methylpyrimidin-5-yl)methyl)-3-methoxyphenoxy)propyl)pyrrolidine-2-carboxylic acid] returned an IC50 at hERG potassium channel above 10000 nM. Also, the EC50 on human TLR8 was above 10000 nM; on human TLR7, 200 nM.
